Measurements from ChEMBL document CHEMBL5576040, “Dipeptide-catalysed Michael reaction under physiological conditions: Examination of potential bioorthogonality” (Bioorg Med Chem, 2024).

Test system: A2780
Experiment: Anticancer activity against human A2780 cells assessed as inhibition of cell growth measured after 48 hrs by MTT assay
Format: functional, cell-based
Details: A2780, 48 h

IC50	Compound
> 100 µM	O=C1CCCC[C@H]1[C@@H](C[N+](=O)[O-])c1ccccc1
89 µM	O=C1CCCC[C@H]1[C@H](c1ccccc1)C(F)[N+](=O)[O-] (some centres not stated)
